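In this assay, cells in 96-well plates receive the compound at five concentrations for 48 hours. Endpoints are linearly interpolated between the surrounding concentrations. TGI: total growth inhibition.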
Tests used:
Experiment in all cases: DTP human tumour cell line panel, 48 h
[1] = test system: EKVX NSCLC
[2] = test system: HOP-92 NSCLC
[3] = test system: K-562 leukemia
[4] = test system: HT29 colon
[5] = test system: NCI-H226 lung
[6] = test system: M14 melanoma
[7] = test system: MOLT-4 leukemia
[8] = test system: HOP-18 NSCLC
[9] = test system: COLO 205 colon
[10] = test system: LXFL 529 NSCLC
[11] = test system: 786-0 renal
[12] = test system: SN12C renal
[13] = test system: UO-31 renal
[14] = test system: SK-MEL-28 melanoma
[15] = test system: OVCAR-3 ovarian
[16] = test system: NCI-H23 lung
[17] = test system: XF 498 CNS
[18] = test system: ACHN renal
[19] = test system: HCT-116 colon
[20] = test system: CCRF-CEM leukemia
[21] = test system: OVCAR-8 ovarian
[22] = test system: SF-295 CNS
[23] = test system: SNB-19 CNS
[24] = test system: RPMI-8226 leukemia
[25] = test system: IGROV1 ovarian
[26] = test system: DMS 114 small cell lung
[27] = test system: SNB-78 CNS
[28] = test system: DMS 273 small cell lung
[29] = test system: SNB-75 CNS
[30] = test system: UACC-257 melanoma
[31] = test system: A549 NSCLC
[32] = test system: SK-OV-3 ovarian
[33] = test system: HL-60(TB) leukemia
[34] = test system: OVCAR-4 ovarian
[35] = test system: U251 CNS
[36] = test system: SF-268 CNS
[37] = test system: MALME-3M melanoma
[38] = test system: UACC-62 melanoma
[39] = test system: SK-MEL-5 melanoma
[40] = test system: SF-539 CNS
[41] = test system: RXF 393 renal
[42] = test system: CAKI-1 renal
[43] = test system: LOX IMVI melanoma
[44] = test system: SR leukemia
[45] = test system: HCT-15 colon
[46] = test system: OVCAR-5 ovarian
[47] = test system: SK-MEL-2 melanoma
[48] = test system: DLD-1 colon
[49] = test system: NCI-H460 lung
[50] = test system: TK-10 renal
[51] = test system: HCC-2998 colon
[52] = test system: HOP-62 NSCLC
[53] = test system: KM12 colon
[54] = test system: KM20L2 colon
[55] = test system: A498 renal
[56] = test system: SW-620 colon
[57] = test system: M19-MEL melanoma

For `O=S(Cc1ccccn1)c1nc2ccccc2nc1-c1ccccc1` (configuration not stated), the TGI [1] was 73.7 µM, the TGI [2] was 83.3 µM and the TGI [3] was greater than 100 µM. It also gave a TGI [4] greater than 100 µM, a TGI [5] of 76.2 µM and a TGI [6] greater than 100 µM. For the same molecule, the TGI [7] was greater than 100 µM, the TGI [8] was greater than 100 µM and the TGI [9] was 32.8 µM. It also gave a TGI [10] greater than 100 µM, a TGI [11] greater than 100 µM and a TGI [12] greater than 100 µM. For the same molecule, the TGI [13] was 90.4 µM, the TGI [14] was greater than 100 µM and the TGI [15] was greater than 100 µM. The TGI [16] was greater than 100 µM, the TGI [17] was 47.3 µM and the TGI [18] was greater than 100 µM. For the same molecule, the TGI [19] was greater than 100 µM, the TGI [20] was greater than 100 µM and the TGI [21] was greater than 100 µM. The TGI [22] was greater than 100 µM, the TGI [23] was greater than 100 µM and the TGI [24] was 91.3 µM. It also gave a TGI [25] of 73.3 µM, a TGI [26] of 69.6 µM and a TGI [27] of 94 µM. It also gave a TGI [28] greater than 100 µM, a TGI [29] of 79.6 µM and a TGI [30] of 82 µM. The TGI [31] was greater than 100 µM, the TGI [32] was greater than 100 µM and the TGI [33] was 80.7 µM. It also gave a TGI [34] greater than 100 µM, a TGI [35] greater than 100 µM and a TGI [36] greater than 100 µM. It also gave a TGI [37] of 97.7 µM.
In the case of `COc1ccc(NC(=O)/C(N=O)=C(/C)O)cc1`, the TGI [1] is reported as greater than 100 µM, the TGI [38] is reported as greater than 100 µM and the TGI [39] is reported as greater than 100 µM. It also gave a TGI [2] greater than 100 µM, a TGI [40] greater than 100 µM and a TGI [3] greater than 100 µM. It also gave a TGI [4] greater than 100 µM, a TGI [5] greater than 100 µM and a TGI [6] greater than 100 µM. For the same molecule, the TGI [7] was greater than 100 µM, the TGI [41] was greater than 100 µM and the TGI [8] was greater than 100 µM. For the same molecule, the TGI [10] was greater than 100 µM, the TGI [42] was greater than 100 µM and the TGI [11] was greater than 100 µM. For the same molecule, the TGI [43] was 47.9 µM, the TGI [44] was greater than 100 µM and the TGI [45] was 36.8 µM. For the same molecule, the TGI [12] was greater than 100 µM, the TGI [13] was greater than 100 µM and the TGI [14] was greater than 100 µM. It also gave a TGI [46] greater than 100 µM, a TGI [16] greater than 100 µM and a TGI [18] greater than 100 µM. For the same molecule, the TGI [19] was greater than 100 µM, the TGI [20] was greater than 100 µM and the TGI [21] was greater than 100 µM. The TGI [22] was greater than 100 µM, the TGI [23] was greater than 100 µM and the TGI [24] was greater than 100 µM. The TGI [25] was greater than 100 µM, the TGI [26] was greater than 100 µM and the TGI [27] was greater than 100 µM. The TGI [28] was greater than 100 µM, the TGI [47] was greater than 100 µM and the TGI [29] was greater than 100 µM. For the same molecule, the TGI [48] was greater than 100 µM, the TGI [30] was greater than 100 µM and the TGI [49] was 53.5 µM. The TGI [50] was greater than 100 µM, the TGI [31] was greater than 100 µM and the TGI [51] was greater than 100 µM. For the same molecule, the TGI [32] was greater than 100 µM, the TGI [52] was greater than 100 µM and the TGI [53] was greater than 100 µM. It also gave a TGI [33] greater than 100 µM, a TGI [54] greater than 100 µM and a TGI [35] greater than 100 µM. It also gave a TGI [55] greater than 100 µM, a TGI [56] of 30 µM and a TGI [36] greater than 100 µM. It also gave a TGI [37] greater than 100 µM.
With `CCc1c(OC(C)=O)c2c(NC3OC(COC(C)=O)C(OC(C)=O)C(OC(C)=O)C3OC(C)=O)nc(OC)nc2oc1=O` (configuration not stated) the TGI [1] was greater than 100 µM, the TGI [38] was greater than 100 µM and the TGI [39] was greater than 100 µM. The TGI [40] was greater than 100 µM, the TGI [3] was greater than 100 µM and the TGI [4] was greater than 100 µM. For the same molecule, the TGI [5] was greater than 100 µM, the TGI [6] was greater than 100 µM and the TGI [7] was greater than 100 µM. For the same molecule, the TGI [41] was greater than 100 µM, the TGI [8] was greater than 100 µM and the TGI [9] was greater than 100 µM. For the same molecule, the TGI [10] was greater than 100 µM, the TGI [42] was greater than 100 µM and the TGI [11] was greater than 100 µM. For the same molecule, the TGI [43] was greater than 100 µM, the TGI [45] was greater than 100 µM and the TGI [12] was greater than 100 µM. The TGI [13] was greater than 100 µM, the TGI [57] was greater than 100 µM and the TGI [15] was greater than 100 µM. For the same molecule, the TGI [46] was greater than 100 µM, the TGI [16] was greater than 100 µM and the TGI [17] was greater than 100 µM. For the same molecule, the TGI [18] was greater than 100 µM, the TGI [19] was greater than 100 µM and the TGI [20] was greater than 100 µM. For the same molecule, the TGI [21] was greater than 100 µM, the TGI [22] was greater than 100 µM and the TGI [23] was greater than 100 µM. It also gave a TGI [24] greater than 100 µM, a TGI [25] greater than 100 µM and a TGI [26] greater than 100 µM. It also gave a TGI [27] greater than 100 µM, a TGI [28] greater than 100 µM and a TGI [47] greater than 100 µM. The TGI [29] was greater than 100 µM, the TGI [48] was greater than 100 µM and the TGI [30] was greater than 100 µM. The TGI [49] was greater than 100 µM, the TGI [50] was greater than 100 µM and the TGI [31] was greater than 100 µM. The TGI [51] was greater than 100 µM, the TGI [32] was greater than 100 µM and the TGI [52] was greater than 100 µM. The TGI [53] was greater than 100 µM, the TGI [33] was greater than 100 µM and the TGI [34] was greater than 100 µM. The TGI [54] was greater than 100 µM, the TGI [35] was greater than 100 µM and the TGI [55] was greater than 100 µM. For the same molecule, the TGI [56] was greater than 100 µM and the TGI [37] was greater than 100 µM.
